# Results as given in ChEMBL document CHEMBL1139456, “Discovery of alpha,gamma-diketo acids as potent selective and reversible inhibitors of hepatitis C virus NS5b RNA-dependent RNA polymerase” (J Med Chem, 2004).
# Target: RNA-directed RNA polymerase (Hepacivirus hominis, UniProt O39930)
# Experiment: Inhibitory activity against Hepatitis C virus RNA dependent RNA polymerase nonstructural protein 5B
# RNA-directed RNA polymerase, sequence (O39930 whole entry): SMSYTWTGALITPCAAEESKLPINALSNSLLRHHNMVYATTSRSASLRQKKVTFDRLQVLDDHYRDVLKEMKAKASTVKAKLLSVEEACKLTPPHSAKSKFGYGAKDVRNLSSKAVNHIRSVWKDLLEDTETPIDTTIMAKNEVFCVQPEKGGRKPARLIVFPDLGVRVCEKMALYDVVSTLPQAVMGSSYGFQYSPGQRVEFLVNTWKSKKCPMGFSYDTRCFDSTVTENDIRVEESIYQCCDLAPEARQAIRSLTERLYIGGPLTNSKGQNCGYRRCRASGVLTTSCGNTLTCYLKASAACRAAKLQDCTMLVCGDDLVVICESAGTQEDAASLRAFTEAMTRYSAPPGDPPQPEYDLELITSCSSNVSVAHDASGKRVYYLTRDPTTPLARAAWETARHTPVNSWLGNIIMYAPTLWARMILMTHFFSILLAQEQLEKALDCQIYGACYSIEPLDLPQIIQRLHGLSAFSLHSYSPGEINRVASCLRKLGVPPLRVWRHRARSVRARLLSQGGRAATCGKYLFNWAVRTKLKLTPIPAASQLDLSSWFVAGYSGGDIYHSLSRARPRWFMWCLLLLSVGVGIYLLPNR
row,Structure (SMILES),IC50
1,O=C(O)C(=O)CCc1ccccc1,> 50 µM
2,N#Cc1c(Cl)cc(Cl)cc1COc1cccc(/C(O)=C/C(=O)C(=O)O)c1,0.045 µM
3,N#CCCCOc1ccccc1C(=O)CC(=O)C(=O)O,0.35 µM
4,N#CCCCOc1ccc(OCc2ccccc2C#N)cc1/C(O)=C/C(=O)C(=O)O,> 50 µM
5,N#CCCCOc1cccc(/C(O)=C/C(=O)C(=O)O)c1,2.5 µM
6,O=C(O)C(=O)CC(=O)c1ccncc1,> 50 µM
7,COC(=O)C(=O)CC(=O)c1ccccc1,> 50 µM
8,O=C(O)C(=O)CC(=O)c1ccco1,> 50 µM
9,O=C(O)C(=O)CC(=O)C(c1ccccc1)c1ccccc1,> 50 µM
10,CC(C)(C)c1ccc(C(=O)CC(=O)C(=O)O)cc1,> 50 µM
11,O=C(CC(O)C(=O)O)c1ccccc1 (stereo not given),> 50 µM
12,N#Cc1ccccc1COc1cccc(/C(O)=C/C(=O)C(=O)O)c1,0.23 µM
13,N#Cc1cccc(COc2cccc(/C(O)=C/C(=O)C(=O)O)c2)c1,6.7 µM
14,O=C(O)C(=O)CC(=O)c1cccnc1,> 50 µM
15,CC(C)(C)C(=O)CC(=O)C(=O)O,> 50 µM
16,N#Cc1ccc(Br)cc1COc1cccc(/C(O)=C/C(=O)C(=O)O)c1,0.1 µM
17,N#Cc1c(Cl)cccc1COc1cccc(/C(O)=C/C(=O)C(=O)O)c1,0.11 µM
18,O=C(O)C(=O)CC(=O)c1ccccc1OCc1ccccc1,44 µM
19,CC(=O)CC(=O)C(=O)O,> 50 µM

# Next, values leading:
row,IC50,Structure (SMILES)
1,47 µM,CCc1ccc(C(=O)CC(=O)C(=O)O)cc1
2,3.9 µM,CCCOc1ccccc1C(=O)CC(=O)C(=O)O
3,5 µM,Cc1ccc(C(=O)CC(=O)C(=O)O)cc1
4,30 µM,O=C(O)C(=O)CC(=O)c1cccc(COc2ccccc2)c1
5,16 µM,O=C(O)C(=O)CC(=O)c1cccc(NS(=O)(=O)c2ccccc2)c1
6,10 µM,CCCCOc1ccccc1C(=O)CC(=O)C(=O)O
7,4.5 µM,O=C(O)C(=O)CC(=O)c1ccsc1
8,8 µM,O=C(O)C(=O)CC(=O)c1cccc(OCc2ccccc2)c1
9,5.7 µM,O=C(O)C(=O)CC(=O)c1ccccc1
10,11 µM,O=C(O)C(=O)CC(=O)c1cccc(NC(=O)c2ccccc2)c1
11,16.7 µM,O=C(O)C(=O)CC(=O)c1cccc(NCc2ccccc2)c1
12,25 µM,CCCCCOc1ccccc1C(=O)CC(=O)C(=O)O

# Target: Human immunodeficiency virus type 1 reverse transcriptase (Human immunodeficiency virus 1, UniProt Q72547)
# Experiment: Inhibitory activity against HIV-1 reverse transcriptase was determined
row,IC50,Structure (SMILES)
1,> 50 µM,N#Cc1c(Cl)cc(Cl)cc1COc1cccc(/C(O)=C/C(=O)C(=O)O)c1

# Target: Nucleic Acid
# Experiment: Inhibitory activity against beta human DNA polymerase was determined
# Format: nucleic-acid assay
row,IC50,Structure (SMILES)
1,> 5 µM,N#Cc1c(Cl)cc(Cl)cc1COc1cccc(/C(O)=C/C(=O)C(=O)O)c1

# Target: Nucleic Acid
# Experiment: Inhibitory activity against alpha human DNA polymerase was determined
# Format: nucleic-acid assay
row,IC50,Structure (SMILES)
1,> 5 µM,N#Cc1c(Cl)cc(Cl)cc1COc1cccc(/C(O)=C/C(=O)C(=O)O)c1

# Target: Nucleic Acid
# Experiment: Inhibitory activity against gamma human DNA polymerase was determined
# Format: nucleic-acid assay
row,IC50,Structure (SMILES)
1,> 5 µM,N#Cc1c(Cl)cc(Cl)cc1COc1cccc(/C(O)=C/C(=O)C(=O)O)c1
